Reference: US20130005718A1 (priority 2009, published 2013)
Where “and” joins values, the source holds several entries; their conditions need not be identical. Identical values can stand only once. Entries after “also recorded” stand apart in the source; their conditions may differ.

Columns and labels:
HCN1 channels = target: T1, HCN1 channels (Mus musculus, UniProt O88704); test: Two-electrode voltage clamp (TEVC) of HCN1 channel gating in Xenopus oocytes; assay type: cell-based, murine; settings: for HCN isoform preference (words): HCN1 versus HCN2, 3 or 4
T1 construct: expressed in transfected cells; host or cells: Xenopus oocytes (cRNA injection)
T1 sequence (O88704 whole entry, canonical isoform): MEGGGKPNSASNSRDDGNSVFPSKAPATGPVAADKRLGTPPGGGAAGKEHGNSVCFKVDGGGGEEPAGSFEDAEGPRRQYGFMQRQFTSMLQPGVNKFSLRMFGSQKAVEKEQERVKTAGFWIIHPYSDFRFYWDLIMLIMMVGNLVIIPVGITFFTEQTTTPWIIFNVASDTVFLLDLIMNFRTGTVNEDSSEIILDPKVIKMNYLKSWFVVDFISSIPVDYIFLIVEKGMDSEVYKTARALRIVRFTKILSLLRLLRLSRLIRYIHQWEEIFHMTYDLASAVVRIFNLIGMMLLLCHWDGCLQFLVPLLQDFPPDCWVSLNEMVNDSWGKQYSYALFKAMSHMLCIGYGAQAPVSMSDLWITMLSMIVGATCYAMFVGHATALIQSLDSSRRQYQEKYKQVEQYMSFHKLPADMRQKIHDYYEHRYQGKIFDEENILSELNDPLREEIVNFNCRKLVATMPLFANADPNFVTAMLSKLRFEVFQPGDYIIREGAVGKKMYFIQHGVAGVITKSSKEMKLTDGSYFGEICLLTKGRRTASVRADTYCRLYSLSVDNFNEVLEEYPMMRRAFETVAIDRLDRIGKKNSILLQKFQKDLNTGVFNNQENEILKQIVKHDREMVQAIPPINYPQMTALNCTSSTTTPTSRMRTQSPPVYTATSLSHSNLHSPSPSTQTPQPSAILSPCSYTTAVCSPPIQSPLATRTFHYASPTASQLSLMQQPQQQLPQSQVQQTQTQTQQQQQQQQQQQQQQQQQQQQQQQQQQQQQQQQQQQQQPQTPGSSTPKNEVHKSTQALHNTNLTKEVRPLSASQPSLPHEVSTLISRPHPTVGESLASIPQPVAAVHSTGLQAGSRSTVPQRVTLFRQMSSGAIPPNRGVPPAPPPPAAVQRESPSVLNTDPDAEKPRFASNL

[1] = system: PNL-induced mechanical allodynia and hyperalgesia; test: Von Frey fiber test after partial sciatic nerve ligation (PNL); assay type: in vivo, C57 Black/6J mice
[2] = system: PNL-induced thermal hyperalgesia; test: Hind paw withdrawal latency (HPWL) to heat source after PNL; assay type: in vivo, C57 Black/6J mice; settings: i.p., 15% heat stimulus
[3] = assay type: in vivo, mice
Protocol: Samples and standards were prepared as follows.
For the standard calibration curve, aliquots of 2,6-DTBP acutely solubilized in DMSO were added to 200 μl of chloroform plus the thymol internal standard (total DMSO addition was 2 μl in all cases). 200 μl of H2O were then added and the samples were processed as described above. In all cases, 2 μl of the chloroform phase was injected for analysis.
(§1) To examine 2,6-DTBP bioavailability, 32 mice received dihydroxy-β-cyclodextrin (DHβCD) solubilized 2,6-DTBP (see below), DHβCD alone or saline by intraperitoneal (i.p.) injection with a dosing schedule as per behavioral testing (see below). 10-60 minutes after receipt of the appropriate final dose, mice were anesthetized with 2.5-3% isoflurane then exsanguinated by venous puncture. Blood concentration of 2,6-DTBP was determined by gas chromatography (see below). To consider toxicity of a high acute therapeutic dose of 2,6-DTBP, some animals received a single bolus of 80 mg/kg. To consider toxicity of an acute hyper-therapeutic dose of 2,6-DTBP, all animals that received three 40 mg/kg therapeutic doses during animal behavior experiments received a 120 mg/kg bolus immediately after the 180 minutes of behavioral testing window, thereby raising the cumulative dose to 240 mg/kg. The general condition of all of these animals was followed by qualitative observation of behavior (grooming and exploration) and survival. All animals were sacrificed within 7 days after receipt of a 2,6-DTBP/DHβCD injection.

mice [4] = test: Acute toxicity of 2,6-DTBP (behavior and survival); assay type: in vivo
Protocol: as §1

[5] = Protocol: Serial dilutions were then dispersed into the aqueous recording solutions maintaining the DMSO concentration at 0.04% (W/V). […] To this end, appropriate masses of 2,6-DTBP and DHβCD that would yield 6 ml of 1% 2,6-DTBP, in combination with 40% DHβCD, were combined in a Teflon® capped borosilicate vial and heated to 60° C. in a water bath. This temperature is above the melting point of 2,6-DTBP (36° C. (Lorenc et al., 2003) but below that of DHβCD (>200° C. (Loftsson et al., 1996) and is compatible with stability of both reagents (Lorenc et al., 2003; Loftsson et al., 1996 and CAS documentation). After 15 minutes, the molten 2,6-DTBP was intimately mixed with the DHβCD by vigorous vortexing, 200 μl of 60° C. DI H2O added and, following additional vortexing, the vial returned to the water bath for 15-30 minutes. Following addition of 3 more 200 μl aliquots of deionized water (DI H2O), with corresponding incubation and vortexing, the sample was left at 60° C. overnight. The resulting colorless viscous gel was slowly diluted by addition of the required volume of DI H2O adding no more than 200 μl at a time with 15-30 minutes incubation at 60° C. and vortexing after each addition.
The injection port and FID were at 280° C. while the column temperature was 210° C. The split ratio was 2:1 while the column flow was 6.96 ml/min with helium (linear velocity 65 cm/s).
Samples and standards were prepared as follows. To 200 μl of whole blood (drawn following injection of DHβCD or 2,6-DTBP solubilized in DHβCD), 200 μl of chloroform containing 100 nM thymol (Sigma) as internal standard and 2 μl of DMSO were added. Following mixing (vortex for 20 seconds followed by 30 minutes on a rotator) and subsequent centrifugation (5000×g for 10 minutes at 10° C.), the chloroform phase was transferred into a glass gas chromatography vial and washed with an equal volume of 0.5 M NaOH. […] DHβCD was added to the DMSO-solubilized 2,6-DTBP sample and DMSO was added to the DHβCD-solubilized 2,6-DTBP sample so that the final concentrations of DHβCD and DMSO were equivalent. […]

mice [6] = settings: i.v. 80-100 mg/kg; cited from earlier work
[7] = variously reported; cited from earlier work
[8] = in vivo; cited from earlier work
[9] = equivalent ionic conditions; cited from earlier work
[10] = listed as 2,6-di-tert-butylphenol

CC(C)(C)c1cccc(C(C)(C)C)c1O [2,6-DTBP, 2,6-di-tert-butylphenol]
HCN1 antagonism (HCN1 channels): strongest potency and highest efficacy of the four derivatives
mean V1/2 of HCN1 activation (HCN1 channels; 10 μM, n=6): −88.3 mV
mean slope of HCN1 activation (HCN1 channels; 10 μM, n=6): 9.6 mV
V1/2 of HCN1 activation (Boltzmann fit, cell shown in FIG. 3A) (HCN1 channels; 10 μM, single cell): −90.8 mV
slope of HCN1 activation (Boltzmann fit, cell shown in FIG. 3A) (HCN1 channels; 10 μM, single cell): 9.7 mV
post incubation maximal current relative to pre incubation current (HCN1 channels; 20 μM, n=6, difference to control not significant): 108%
HCN1 ΔV1/2 after 20-minute incubation (HCN1 channels; 20 μM, solubilized in DHβCD, n=6): −27.7 mV
HCN1 ΔV1/2 after 20-minute incubation (HCN1 channels; 20 μM, solubilized in DMSO, n=6): −31.9 mV
EC50 (HCN1 channels; 20 min incubation, Xenopus oocytes, TEVC, read-out: EC50 for hyperpolarization of V1/2 of HCN1 gating (Hill fit)): 2300 nM and ~2300 nM
HCN isoform preference (words) (HCN1 channels): retains this selectivity profile; also recorded: retains a propofol-like selective efficacy against HCN1 channels
HCN isoform preference (words) (HCN1 channels; [10]): preferentially inhibit HCN1 with little efficacy against HCN2, 3 or 4 channels
apparent stoichiometry h (Hill coefficient) (HCN1 channels; Hill fit of dose-response): 1.4
maximal efficacy ΔV1/2 of HCN1 gating (HCN1 channels; Hill fit of dose-response): −32 mV
mechanical hyperalgesia/allodynia in ipsilateral paw ([1]; i.p. cumulative dosing, post-PNL mice): ameliorates the behavioral consequences of PNL-induced hyperalgesia; also recorded: selectively suppresses PNL-induced mechanical allodynia and hyperalgesia
mechanical threshold, Logit transformation (allodynia, words) ([1]; threshold set at PW of 0.1): restore selectively the mechanical threshold to that observed in the uninjured paw
thermal hyperalgesia, ipsilateral HPWL (words) [2]: ameliorates the behavioral consequences of PNL-induced hyperalgesia; also recorded: selectively ameliorates PNL-induced thermal hyperalgesia
thermal nociception, contralateral HPWL [2]: without significantly altering nociceptive behavior
thermal hyperalgesia, ipsilateral HPWL (words) [2, 10]: significantly relieve the neuropathic behavior
whole blood concentration indicated from the chromatogram shown ([3]; 80 mg/kg i.p. in DHβCD): 3.6 µM
total concentration in whole blood (mean) ([3]; 80 mg/kg i.p. in DHβCD, n=6): 10.6 µM
estimated free serum concentration ([3]; analgesic dose of 40-120 mg/kg i.p.): 0.2 to 0.6 µM
expected free concentration ([3]; from total blood concentration after 80 mg/kg i.p.): 0.1 to 0.5 µM
tolerability of single bolus dose (mice [4]; 80 mg/kg i.p., four mice, seven day observation): all mice tolerated this dose well
tolerability of final bolus (mice [4]; 120 mg/kg bolus after three 40 mg/kg doses, cumulative 240 mg/kg i.p.): not well tolerated
LD75 (mice [4]; acute i.p. dose): ~240 mg/kg
window in which remaining animals died (mice [4]; cumulative 240 mg/kg i.p.): 14 to 18 h
therapeutic index (mice [4]; i.p.): 3 to 5
concentration solubilized in carrier solution [5]: 1 % (W/V)
solubilization in intralipid emulsion [5]: unsuccessful
storage stability of the solution [5]: no phase separation or derivative precipitation
tolerability of acute intravenous exposure (mice [6]): well tolerated
aqueous solubility limit [7]: 20 to 200 µM
anesthetic activity [8]: total absence of anesthetic efficacy

CCCCC/C=C\C/C=C\C/C=C\C/C=C\CCCC(=O)O [arachidonic acid]
critical micelle concentration [9]: about 100 μM
